# Source: US20260071190A1, “SARS CORONAVIRUS 2 R[…] […] GENES, DERIVED FROM GH CLADE SARS CORONAVIRUS 2 OF KOREAN ISOLATE, AND THE PRODUCTION METHOD THEREFOR” (RpexBio, Inc., priority 2022, published 2026)
# Test system: rSARS-COV-2/YS006_Nluc
# Type: cell-based, SARS coronavirus 2
# Conditions: compared to healthy human-derived IgG control, FIG. 4D
substance,measurement,value
etesevimab: Eli Lilly's recombinant monoclonal antibody for the treatment of SARS coronavirus 2,inhibition of viral entry into cells / reporter expression,inhibit viral entry into cells and reduce reporter expression as its concentration increased
